Data as given in patent US5776957A, “Nornicotine enantiomers for use as a treatment for dopamine related conditions and disease states” (The University of Kentucky Research Foundation, priority 1996, dated 1998).
Entries after “also recorded” stand apart in the source; their conditions may differ. Like-named read-outs stand apart in the source and are kept apart here.

Tests used:
[1] = test system: [3H]DA-preloaded rat striatal slices (nicotinic receptors); assay: [3H]overflow (DA release) from [3H]DA-preloaded rat striatal slices; assay type: cell-based
Protocol: In vitro pharmacological effects of NIC are generally investigated using either striatal slices or synaptosome preparations preloaded with [^3 H] DA. NIC-evoked [^3 H]overflow is obtained routinely in the presence of nomifensine (10 μM; a DA uptake inhibitor) and for pargyline (10 μM, a monoamine oxidase inhibitor) in the superfusion buffer, such that [^3 H]overflow represents primarily [^3 H]DA rather than [H]DA-metabolites (Zumstein et al., 1981, Hoffmann and Cubeddu, 1982, Dwoskin and Zahniser, 1986, Rapier et al., 1988), and for this reason, [^3 H]overflow also will be referred to as [^3 H] DA release in the proposal.
The present studies use striatal slices superfused with various concentrations of NIC or norNIC for prolonged periods.
FIG. 4. […] Insets illustrate the response to the low concentration range. […] NIC exposure indicated by the bar under time course. Note: 1-min sample collection period. […] N=4 rats.
Rat striatal slices were depolarized with 10 μM NIC, 20 mM K+or 1 Hz, 60 pulses or 3 Hz, 180 pulses electrical field stimulation. […] N=4.
MEC or DHβE was included in the superfusion buffer for 60 min prior to the addition of NIC, and superfusion continued for 60 min in the presence of NIC+antagonist.

[2] = Locomotor activity assay, acute and repeated treatment, S(-) nicotine challenge, saline challenge; assay type: in vivo, rat; conditions: for behavioral sensitization after repeated administration: 8 injections once every 48 hrs, nicotine 1 mg/kg, R(+) 0.3-10 mg/kg; for conditioned response to repeated administration (saline challenge): 48 hrs after S(-) nicotine challenge; for cross-sensitization to S(-) nicotine: repeated S(-) nornicotine
Protocol: (I mg/kg), norNIC (0.3-10 mg/kg) or R(+) norNIC (0.3-10 mg/kg) was administered peripherally (s.c., 8 injections once every 48 hrs) to groups of rats and locomotor activity was assessed for 50 min immediately after each injection.
In the present study, S(-) nicotine (1 mg/kg), R(+) nornicotine (1-10 mg/kg), S(-) nornicotine (1-10 mg/kg), or vehicle (saline) were administered s.c. to groups of rats (n=6) acutely or repeatedly (8 injections once every 48 hrs). Locomotor activity was measured during 50 min sessions immediately following drug or vehicle administration.
Male Sprague-Hawley rats (225-250 g) from Harlan Laboratories were housed two per cage with free access to food and water.
Activity was recorded automatically in a wooden test-chamber measuring 30×28×43 cm high. The chamber had white walls and a wire mesh floor over pine chip bedding. Two photobeams located 4.5 cm above the floor divided the chamber into four equal quadrants. Electromechanical equipment located in an adjacent room recorded photobeam interruptions automatically. A white noise generator provided an ambient 70 dB background noise in the test room in order to minimize extraneous sounds that might influence the animal's behavior in the test chamber. Rats were habituated to the chamber for 50 min on each of three consecutive days.
On the day immediately after the third habituation session, rats were randomly divided into groups (n=6/group) and were administered s.c. either S(-) nicotine (1 mg/kg), R(+) nornicotine (0.3, 1, 3 and 10 mg/kg), or vehicle (saline) to determine acute drug effects on locomotor activity. In a separate experiment, rats (n=6/group) were administered s.c. either S(-) nicotine (1 mg/kg), S(-) nornicotine (0.3, 1, 3 and 10 mg/kg), or vehicle (saline). To determine the effect of repeated drug administration on locomotor activity, drug or vehicle was administered respectively in the test-room once every 48 hrs for a total of 8 injections. After each injection, locomotor activity was recorded during a 50 min session (five 10-min blocks). On the ninth injection day (48 hrs following injection 8), each group of rats was administered a challenge dose (1 mg/kg) of S(-) nicotine in the test-room, and locomotor activity was determined immediately thereafter. On the tenth injection day, each group of rats was administered saline and locomotor activity recorded to determine potential conditioning effects of the repeated drug administration.
Post hoc analysis of pairwise comparisons was performed with Duncan's New Multiple Range test.

[3] = test system: [3H]DA-preloaded rat striatal slices (nicotinic receptors); conditions: cited from earlier work
[4] = cited from earlier work
[5] = drug self-administration paradigm; conditions: rats
[6] = acute S(-) nornicotine 1 and 3 mg/kg
[7] = repeated S(-) nornicotine 3 mg/kg

Compound: CN1CCC[C@H]1c1cccnc1 [S(-) nicotine]
- absolute [3H]overflow vs 20 mM K+ or 1 Hz, 60 pulses stimulation [1]: not significantly different
- evoked [3H]overflow [1]: increase in [^3 H]overflow; also recorded: stereoselective and concentration dependent increase
- plateau in [3H]overflow [1]: 30 mM
- plateau in response [1]: fail to produce a plateau in response
- time of peak effect [1]: 10 to 15 min
- time of return of release to basal levels [1]: 30 to 60 min
- behavioral sensitization after repeated administration ([2]; S(-) nornicotine 10 mg/kg): robust behavioral sensitization
- conditioned response to repeated administration (saline challenge) [2]: did not contribute to the observed behavioral sensitization
- cumulated locomotor activity after saline challenge ([2]; R(+) experiment, S(-) nicotine 1 mg/kg group): 485 ± 41 number of photobeam interruptions/50 min session
- cumulated locomotor activity after saline challenge ([2]; S(-) experiment, S(-) nicotine 1 mg/kg group): 429 ± 34 number of photobeam interruptions/50 min session
- locomotor activity time course ([2]; acute S(-) nicotine 1 mg/kg, 20-40 min): did not alter activity
- locomotor activity time course ([2]; acute S(-) nicotine 1 mg/kg, first 10 min): significantly decreased activity
- locomotor activity time course ([2]; acute S(-) nicotine 1 mg/kg, last 10 min): significantly increased locomotor activity
- cumulated locomotor activity vs saline-control ([2]; acute, S(-) nicotine 1 mg/kg): not different from the saline-control group; also recorded: did not alter
- cumulated locomotor activity after S(-) nicotine challenge ([2]; repeated S(-) nicotine group vs saline-control): significantly increased
- time course after S(-) nicotine challenge ([2]; repeated S(-) nicotine, first 20 min (R(+) experiment) vs saline-control): significantly increased
- time course after S(-) nicotine challenge ([2]; repeated S(-) nicotine, first 30 min (S(-) experiment)): significantly greater
- locomotor activity time course ([2]; repeated S(-) nicotine, majority of time course): significant increase in activity
- cumulated locomotor activity vs saline-control ([2]; repeated, S(-) nicotine 1 mg/kg, 8 injections): significantly increased locomotor activity
- plateau concentration of concentration-response curve ([3]; Izenwasser et al. (1991), 10-min exposure): 0.1 µM
- EC50 ([3]; rat striatal slices, Sacaan et al. (1995), read-out: EC50 for NIC-evoked [3H]overflow): 3700 nM
- cross-sensitization between nicotine and amphetamine [4]: has not been observed
- self-administration / substitution for amphetamine [5]: responding was established and maintained

Compound: c1cncc([C@@H]2CCCN2)c1 [S(-) nornicotine, S-(-) nornicotine]
- EC50 ([1]; Rattus norvegicus, read-out: EC50 for norNIC stimulated, DHβE-sensitive [3H]overflow): 880 ± 310 nM
- evoked [3H]overflow ([1]; concentration-dependent): increase in [^3 H]overflow; also recorded: stereoselective and concentration dependent increase
- plateau in response ([1]; concentration-response curve, 60-min exposure): not observed at concentrations up to 3 mM; also recorded: fail to produce a plateau in response
- release of dopamine from presynaptic terminals ([1]; neuronal tissue): stereoselective and receptor-mediated
- behavioral sensitization after repeated administration ([2]; S(-) nornicotine 10 mg/kg): produces behavioral sensitization; also recorded: behavioral sensitization following repeated administration of the high dose of S(-) nornicotine was observed
- behavioral sensitization after repeated administration ([2]; S(-) nornicotine 10 mg/kg, listed as S-(-)- norNIC): produces behavioral sensitization
- conditioned response to repeated administration (saline challenge) [2]: did not contribute to the observed behavioral sensitization
- cumulated locomotor activity after saline challenge ([2]; S(-) experiment, 0.3 mg/kg): 352 ± 17 number of photobeam interruptions/50 min session
- cumulated locomotor activity after saline challenge ([2]; S(-) experiment, 1.0 mg/kg): 333 ± 38 number of photobeam interruptions/50 min session
- cumulated locomotor activity after saline challenge ([2]; S(-) experiment, 3.0 mg/kg): 394 ± 50 number of photobeam interruptions/50 min session
- cumulated locomotor activity after saline challenge ([2]; S(-) experiment, 10 mg/kg): 459 ± 26 number of photobeam interruptions/50 min session
- locomotor activity after the seventh injection ([2]; S(-) nornicotine 10 mg/kg, repeated): 364±32 photobeam interruptions
- cumulated locomotor activity vs saline-control ([2]; acute S(-) nornicotine 0.3 mg/kg): significantly increased
- locomotor activity time course ([2]; acute S(-) nornicotine 0.3 mg/kg, first 20 min): significant increase in activity
- cumulated locomotor activity vs saline-control ([2]; acute S(-) nornicotine 10 mg/kg): significant decrease in activity
- locomotor activity time course ([2]; acute S(-) nornicotine 10 mg/kg, first 10 min): decreased during the first 10 min of the session
- cumulated locomotor activity vs saline-control [2, 6]: not different from the saline-control group
- locomotor activity time course [2, 6]: not different from the saline-control group
- cumulated locomotor activity vs saline-control ([2]; acute, 0.3 and 10 mg/kg, R(+) experiment): significant decrease in locomotor activity
- cumulated locomotor activity vs saline-control ([2]; acute, 1 and 3 mg/kg, R(+) experiment): not different from control
- locomotor activity, first 10 min ([2]; acute, S(-) nornicotine 3 mg/kg): 121±14 photobeam interruptions
- cross-sensitization to S(-) nicotine [2]: cross-sensitization to S(-) nicotine was observed
- tolerance to acute stimulatory effect ([2]; repeated S(-) nornicotine 0.3 mg/kg): tolerance to the acute stimulatory effect
- locomotor activity, first 10 min [2, 7]: 101±12 photobeam interruptions
- locomotor activity, first 10 min after S(-) nicotine challenge [2, 7]: 134±21 photobeam interruptions
- tolerance to depressant effect [2, 7]: tolerance did not develop
- tolerance to depressant effect ([2]; repeated S(-) nornicotine 10 mg/kg): also observed; also recorded: tolerance developed
- time course after S(-) nicotine challenge ([2]; repeated S(-) nornicotine 10 mg/kg, 10-min and 30-min time points): stimulated significantly
- locomotor activity time course ([2]; repeated S(-) nornicotine 10 mg/kg, 20-40 min): significantly greater than that of the saline-control group
- locomotor activity vs saline-control ([2]; repeated S(-) nornicotine 10 mg/kg, last administration): stimulated significantly above that of the saline-control group
- locomotor activity time course ([2]; repeated S(-) nornicotine 0.3-3 mg/kg): not different from the saline-control group
- time course after S(-) nicotine challenge ([2]; repeated S(-) nornicotine 0.3 and 1 mg/kg): not different from that of the saline-control group
- cumulated locomotor activity after S(-) nicotine challenge ([2]; repeated S(-) nornicotine 0.3 and 1.0 mg/kg): no effect
- locomotor activity vs saline-control ([2]; repeated S(-) nornicotine 1 and 3 mg/kg): not different from that of the saline-control group
- cumulated locomotor activity after S(-) nicotine challenge ([2]; repeated S(-) nornicotine 3 and 10 mg/kg): significantly stimulated locomotor activity
- cross-sensitization to S(-) nicotine ([2]; listed as norNIC): cross-sensitization was observed
- antagonist sensitivity of effects ([3]; Teng et al., 1996): inhibited by mecamylamine and DHβE
- potency relative to nicotine ([4]; behavioral sensitization): less potent than nicotine
- self-administration / substitution for amphetamine ([5]; listed as S-(-)-nornicotine): self-administered; also recorded: substitutes for amphetamine self administration
- self-administration / substitution for amphetamine ([5]; listed as norNIC): reinforcing
